Assay [1] has as its system Heteropogon contortus. The assay can be described thus: Nematocidal activity against […] McMaster assessed as inhibition of nematode larval development after 5 days. Format: functional.
Assay [2] deals with Bacillus subtilis. Put plainly: Antibacterial activity against Bacillus subtilis ATCC 6633 at 100 ug/ml after 24 hrs by agar-based microtiter plate assay. The format is functional, organism-based.
Assay [3] relates to Saccharomyces cerevisiae. Put plainly: Antifungal activity against Saccharomyces cerevisiae ATCC 9763 at 200 ug/ml after 24 hrs by agar-based microtiter plate assay. Format: functional, organism-based.
For assay [4], the system named is Bacillus subtilis. Put plainly: Antibacterial activity against Bacillus subtilis ATCC 6633 after 24 hrs by agar-based microtiter plate assay. Format: functional.
Assay [5] has as its system Saccharomyces cerevisiae. Particulars: ATCC 9763, 50 ug/ml.
Description: Antifungal activity against Saccharomyces cerevisiae ATCC 9763 at 50 ug/ml after 24 hrs by agar-based microtiter plate assay
Assay [6] relates to Bacillus subtilis. The note with it: ATCC 6633, 50 ug/ml.
Description: Antibacterial activity against Bacillus subtilis ATCC 6633 at 50 ug/ml after 24 hrs by agar-based microtiter plate assay

The source made the active and inactive calls. The calls are words filed in the database; no cut-off is given here.

The text below walks through data of ChEMBL document CHEMBL1150604, “Convolutindole A and convolutamine H, new nematocidal brominated alkaloids from the marine bryozoan Amathia convoluta” (2002).

As for `CNCCc1c(Br)c(Br)c(Br)c(OC)c1OC` [CONVOLUTAMINE H], the LD99 in assay [1] turned out to be 0.2 µg/mL. Further, the LD99 entry in assay [2] and in assay [3] was “inactive” each time.

With `COc1c(Br)cc(Br)c2c(CCN(C)C)c(Br)n(OC)c12` [CONVOLUTINDOLE A], the LD99 in assay [1] was 0.39 µg/mL; in assay [4] it was 50 µg/mL. The LD99 result in assay [3] was “inactive”.

As to `c1ccc([C@H]2CN3CCSC3=N2)cc1` [LEVAMISOLE], the LD99 entry in assay [5] and in assay [6] was “inactive” each time. Also, in assay [1], the LD99 is 1.6 µg/mL.
